Assay results from PMC7169845, “Synthesis and Bioactivity of Phthalimide Analogs as Potential Drugs to Treat Schistosomiasis, a Neglected Disease of Poverty” (Pharmaceuticals, 2020).

| SMILES | melting point [°C] |
| --- | --- |
| Cc1ccc2c(c1)C(=O)N(C(C)c1nc3ccccc3n1Cc1cn(-c3c(F)cccc3F)nn1)C2=O (stereo not shown) [6q’, 2-(1-(1-((1-(2,6-Difluorophenyl)-1H-1,2,3-triazol-4-yl)methyl)-1H-benzo[d]imidazol-2-yl)ethyl)-5-methylisoindoline-1,3-dione] | 166 to 168 |
| CC(C)C(c1nc2ccccc2n1Cc1cn(-c2ccccc2F)nn1)N1C(=O)c2ccccc2C1=O (stereo not shown) [6s’, 2-(1-(1-((1-(2-Fluorophenyl)-1H-1,2,3-triazol-4-yl)methyl)-1H-benzo[d]imidazol-2-yl)-2-methylpropyl)isoindoline-1,3-dione] | 115 to 117 |
| Cc1ccc2c(c1)C(=O)N(C(C)c1nc3ccccc3n1Cc1cn(-c3ccccc3F)nn1)C2=O (stereo not shown) [6o’, 2-(1-(1-((1-(2-Fluorophenyl)-1H-1,2,3-triazol-4-yl)methyl)-1H-benzo[d]imidazol-2-yl)ethyl)-5-methylisoindoline-1,3-dione] | 185 to 187 |
| CC(C)C(c1nc2ccccc2n1Cc1cn(-c2c(F)cccc2F)nn1)N1C(=O)c2ccccc2C1=O (stereo not shown) [6u’, 2-(1-(1-((1-(2,6-Difluorophenyl)-1H-1,2,3-triazol-4-yl)methyl)-1H-benzo[d]imidazol-2-yl)-2-methylpropyl)isoindoline-1,3-dione] | 91 to 93 |

Second part, the compound after the results:

| melting point [°C] | SMILES |
| --- | --- |
| 86 to 88 | CCC(C)C(c1nc2ccccc2n1Cc1cn(-c2c(F)c(F)c(F)c(F)c2F)nn1)N1C(=O)c2ccccc2C1=O (stereo not shown) [6t, 2-(2-Methyl-1-(1-((1-(perfluorophenyl)-1H-1,2,3-triazol-4-yl)methyl)-1H-benzo[d]imidazol-2-yl)butyl)isoindoline-1,3-dione] |
| 138 to 140 | Cc1ccc2c(c1)C(=O)N(C(CC(C)C)c1nc3ccccc3n1Cc1cn(-c3ccccc3F)nn1)C2=O (stereo not shown) [6i, 2-(1-(1-((1-(2-Fluorophenyl)-1H-1,2,3-triazol-4-yl)methyl)-1H-benzo[d]imidazol-2-yl)-3-methylbutyl)-5-methylisoindoline-1,3-dione] |
| 114 to 116 | CCC(C)C(c1nc2ccccc2n1Cc1cn(-c2ccccc2F)nn1)N1C(=O)c2ccc(C)cc2C1=O (stereo not shown) [6q, 2-(1-(1-((1-(2-Fluorophenyl)-1H-1,2,3-triazol-4-yl)methyl)-1H-benzo[d]imidazol-2-yl)-2-methylbutyl)-5-methylisoindoline-1,3-dione] |
| 71 to 73 | Cc1ccc2c(c1)C(=O)N(C(CC(C)C)c1nc3ccccc3n1Cc1cn(-c3c(F)cccc3F)nn1)C2=O (stereo not shown) [6k, 2-(1-(1-((1-(2,6-Difluorophenyl)-1H-1,2,3-triazol-4-yl)methyl)-1H-benzo[d]imidazol-2-yl)-3-methylbutyl)-5-methylisoindoline-1,3-dione] |
| 196 to 198 | CCC(C)C(c1nc2ccccc2n1Cc1cn(-c2c(F)c(F)c(F)c(F)c2F)nn1)N1C(=O)c2ccc(C)cc2C1=O (stereo not shown) [6s, 5-Methyl-2-(2-methyl-1-(1-((1-(perfluorophenyl)-1H-1,2,3-triazol-4-yl)methyl)-1H-benzo[d]imidazol-2-yl)butyl)isoindoline-1,3-dione] |
| 107 to 109 | CC(C)CC(c1nc2ccccc2n1Cc1cn(-c2ccccc2F)nn1)N1C(=O)c2ccccc2C1=O (stereo not shown) [6n, 2-(1-(1-((1-(2-Fluorophenyl)-1H-1,2,3-triazol-4-yl)methyl)-1H-benzo[d]imidazol-2-yl)-3-methylbutyl)isoindoline-1,3-dione] |
